We go through one compound from patent US20250306007A1, “DETECTING APOPTOTIC BODIES BY IMPEDANCE CYTOMETRY AS AN INDICATOR OF DRUG SENSITIVITY” (University of Virginia Patent Foundation, priority 2022, published 2025).

The test system of experiment [1] is cancer cells lifted from the culture (gemcitabine-treated pancreatic tumor cultures). Kind of experiment: impedance cytometry of cancer cell samples exposed to chemotherapeutic drug. In kind it is cell-based. Conditions: about 48 hours, FIG. 2A/2B. The text has this:
Individual cells from the biological sample or culture 102 can flow (e.g., propelled via a focusing flow channel of the impedance cytometry device 104) through the main channel 114 of the test cell 106 at a specified throughput (e.g., within a range of about 200 cells/s to about 500 cells/s) past electrodes or microelectrodes under an AC electric field applied over a specified range of frequencies (e.g., within a range between about 0.5 megahertz (MHz) to 50 MHz). In an example, an impedance of respective detected specimen can be measured by the measurement circuitry 108 concurrently or simultaneously using a plurality of discrete frequencies, e.g., a reference frequency within a range of about 15 MHz and about 20 MHz, and one or more analysis frequencies within a specified analysis frequency range. […] The electrophysiology of the cancer cells lifted from the culture after various gemcitabine treatment conditions can be measured by impedance cytometry to determine impedance magnitude (|Z|) and impedance phase (ϕZ) at a low (0.5 MHz) and a high frequency (18 MHz) for analyzing individual cellular 204 and/or sub-cellular 202 events. […] At a specified threshold frequency (e.g., at about 18 MHz), the impedance signal can be effectively determined by the dielectric properties of the cell interior, rather than properties the cell exterior. […]

The subject of experiment [2] is highly tumorigenic cells derived from the xenograft 122 (patient-derived tumor cells). Kind of experiment: cell proliferation assays comparing phenotypes over drug concentration ranges. In kind it is cell-based. The text has this:
FIG. 1B is a schematic example of a progression of drug resistance onset of in vitro cancer cells. In an example, a tumor tissue sample 120 can be collected from a cancer patient 118 such as via surgical resection or biopsy. Cells from the tumor tissue sample 120 can be propagated, e.g., within immunocompromised mice as a xenograft 122. […] Once propagated, the line established from the xenograft 122 can be maintained in culture for treatment from a chemotherapeutic drug 124, such as gemcitabine, a fluorouracil, doxorubicin, or any other drug used in the treatment of cancer. In an example involving gemcitabine treatment on highly tumorigenic cells derived from the xenograft 122, the range of gemcitabine levels that lead to drug sensitivity can be assessed by cell proliferation assays 126. Depending on the drug treatment, the in vitro cancer cells can be drug resistant, e.g., with varying degrees of resistance to one or more drugs. The CAFs can also be further propagated in vitro and subjected to additional drug treatment(s) to further examine the drug resistance of the cancer cells. […] These structures can be associated with apoptosis-induced cell disassembly, which generates ABs of particular composition and structure. These phenotypes can be used as a model to help identify and stratify ABs in subsequent patient-derived tumor cells using impedance cytometry techniques based on comparison of their single-particle sensitivity levels.

Regarding `Nc1ccn([C@@H]2O[C@H](CO)[C@@H](O)C2(F)F)c(=O)n1` [chemotherapeutic drug 124, gemcitabine], the “sub-cellular events (release of ABs)” value in experiment [1] (increasing drug concentration 0.01, 0.1, 1 μg mL^−1 vs untreated) was “rise in sub-cellular events 202”. The “impedance phase at 18 MHz (ϕZ18 MHz), cellular and sub-cellular populations” value in experiment [1] (increasing drug concentration) is recorded as “downward shift in ϕZ18 MHz”. Moreover, the “phenotype (apoptosis-induced cell disassembly structures)” value was “generation of blebs of varying size on the plasma membrane” in experiment [2] (at about 0.01 μg mL^−1), “presence of large protrusions” in experiment [2] (at about 0.1 μg mL^−1) and “emergence of beaded structures” in experiment [2] (at about 1 μg mL^−1).
